Experimental data from ChEMBL document CHEMBL3507680, “University of Dundee, Gates Library screen for HepG2 cell viability”.

assay: Human HepG2 cell viability assay in 384 well format; format: toxicity, cell-based; set-up: dose 125 nL, time 70.5 hour; cytotoxicity at 70.5 h: concentration not given beside the values; conditions: HepG2 cells, read-out: Inhibition

Structure (SMILES)	cytotoxicity at 70.5 h [%]
O=C(CSCc1ccncc1)NCc1csc(Br)c1	-8.77
CCCC1COCCN1Cc1ccc(C(=O)O)cc1 (stereo not given)	-4.7
CCOCc1cncc2c1CCN(S(=O)(=O)c1ccccc1)C2	-3.1
COCC1CN(Cc2cccc(C#N)c2)Cc2nccn2C1 (stereo not given)	1.24
CCOCC1CN(C(=O)c2ccncn2)Cc2cnn(CC)c21 (stereo not given)	-11.7
O=C(c1cccnc1)C1CCCN(c2nnc(C3CC3)o2)C1 (stereo not given)	-1.21
COc1cccc(CNC(=O)CCOc2ccccc2C)c1	-10.3
CC(C)c1cc(C(=O)N2CCc3ccccc3C2C(=O)O)n(C)n1 (stereo not given)	-5.14
CCn1c(CC2CCN(C(=O)C3CC(C(C)C)=NO3)CC2)nn(C)c1=O (stereo not given)	-6.72
CS(=O)(=O)c1cc(Cl)cnc1C1CCCN(C(=O)C2CCOCC2)C1 (stereo not given)	-7.95
COc1cccc([C@@H]2CCN(Cc3cccc(C)n3)C[C@H]2O)c1	-9.27
Cc1csc(N2CCCN(C(=O)Cn3cncn3)CC2)n1	-2.46
Cc1nc([C@H]2C[C@@H]3CCN(Cc4cnn(C)c4)C[C@H]3O2)sc1C	-1.71
CC(C)CN1C[C@H]2CCN(C(=O)c3ccccn3)CC[C@H]2S1(=O)=O	-4.38
CN(CC(C)(CO)CO)C(=O)Nc1cc(F)cc(Cl)c1	-6.37
CC(C)c1nnc2n1CCN(CCC(=O)Nc1sccc1C#N)C2	-1.15
Cc1nc[nH]c1CN1CCCC(CNC(=O)c2ccc(N)nc2)C1 (stereo not given)	-6.47
COCc1ccc(C(=O)NS(=O)(=O)c2ccc3c(c2)CCC(=O)N3)cc1	17.1
O=C(Cc1cc(-c2ccc3c(c2)OCO3)on1)NC1CCCC1	-8.33
Cc1cc(C)n(C2CCCN(C(=O)c3ccn(C)c(=O)c3)C2)n1 (stereo not given)	-9.18
Cc1nn(C)c(C)c1C1CCCN1c1ncnc2[nH]ccc12 (stereo not given)	0.0825
COc1ccc(OC)c(CN2CCc3nc4ccsc4c(=O)n3CC2)c1	38.7
CCCOc1cc(C)ccc1NC(=O)NCCNC(C)=O	3.53

Structure (SMILES)	cytotoxicity at 70.5 h [%]
COCc1cc(O)nc(C2CCCN(Cc3cc(OC)ccc3F)C2)n1 (stereo not given)	-4.84
COc1ccc(CC(=O)N2CCc3nc(C(=O)N(C)C)sc3CC2)cc1	-4
O=C1CCC2(CCCN(C(=O)Cc3ccccn3)C2)N1 (stereo not given)	2.4
O=C(COc1cccnc1)NCc1nncn1C1CCCCC1	-5.77
CCN(CC)C(=O)c1c(Br)cnn1CC	-2.09
Cc1nc[nH]c1-c1nccn1CCN1CCOC1=O	-8.03
CCN1CCC(c2nc3ccc(NC4CCC4)cn3n2)CC1	-4.48
COc1c(C2CCCN2C(=O)c2cnccn2)c(C)nn1C (stereo not given)	20.2
CN(C)c1ncnc2c1CCN(C(=O)c1cccnc1)CC2	-6.66
CCN(Cc1cccc2c1OCO2)CC1CCCO1 (stereo not given)	-6.33
c1cncc(N2CCC(c3ccncc3)CC2)c1	3.31
COCCCC1(C(=O)O)CCCN(Cc2ccccc2C)C1 (stereo not given)	-4.89
COc1cccc2c1OCC(C(=O)NC1CCN(S(C)(=O)=O)CC1)C2 (stereo not given)	14
Cc1ccc(CNC(c2ccccc2)c2nccn2C)cc1 (stereo not given)	22.4
O=C([C@H]1CCCO1)N1CCc2ncc(CN3CCOCC3)n2CC1	-11.9
CNC(=O)c1cc(S(=O)(=O)C(C)C)cs1	1.49
CN(C)c1ccc(CNCc2ccc(N3CCOCC3)cc2)cn1	-9.01
COc1ccc(Cc2nc3c([nH]2)CC(C)(C)CNC3=O)c(OC)c1	-9.23
CN(Cc1ccncc1)C(=O)Nc1cnn(CC2CCCO2)c1 (stereo not given)	-3.42
COCCNC(=O)c1ccc(C)c(-n2cccc2)c1	-2.8
CC(C)N(C)C(=O)Cn1ncc(N(C)CCc2ccccc2)cc1=O	-3.47
Cc1cc(C(=O)NC(C)CC(=O)c2ccco2)[nH]n1 (stereo not given)	15.2
CCc1nccn1C1CCCN(C(=O)c2cnc[nH]2)C1 (stereo not given)	-3.68

Structure (SMILES)	cytotoxicity at 70.5 h [%]
CN(C)CCN1CCOCC2(CCCN(C(=O)c3cccc(O)c3)C2)C1 (stereo not given)	-2.03
Cc1nc(CN2C[C@@H]3CN(C(=O)c4cccn4C)C[C@@H]3C2)cs1	-6.14
COCCN1CCC(C(=O)N(C)Cc2cccc(Cl)c2)C1 (stereo not given)	32
CN(C(=O)c1ccncc1)c1ccccc1S(C)(=O)=O	-2.3
Cc1cnn(CC2CCCN2C(=O)c2sccc2-n2cnnn2)c1 (stereo not given)	-4.41
COc1cccc(CN2CC(=O)N(c3ccccc3C)CC2C)c1OC (stereo not given)	-6.78
CCn1ccnc1CN1CCCN(C(=O)Cc2ccc(C)nc2)CC1	-14.5
CC(C)(C)CN1CCN2C(=O)N(C3CCCCC3)C[C@H]2C1	-11.1
CN(C)C(=O)CO[C@@H]1CC[C@H]2[C@H]1OCCN2C(=O)C1CCOCC1	-3.79
NC(=O)C1CCN(C(=O)CCn2c(C(F)(F)F)cc3cccnc32)CC1	3.01
CCc1nnc2n1CCN(C(=O)c1cnc3ccccc3n1)C2	-4.54
Cc1cc(N2C[C@H](C3CC3)[C@@H](N)C2)nc(N2CCCCC2)n1	3.53
O=S(=O)(CCNCc1ccc2c(c1)CCO2)N1CCOCC1	12.8
CC(=O)c1ccc(S(=O)(=O)NCc2cccnc2N(C)C)cc1	-3.14
COc1ccc(Br)c(C(=O)NCC2CC2)c1	18.2
CC(C)N1CCc2c(CNC(=O)c3nccn3C)cncc2C1	-4.9
CS(=O)(=O)NCC1Cc2ccccc2O1 (stereo not given)	-0.512
COc1ccc(CNCc2c(C)nn(C)c2N2CCOCC2)cc1	-3.63
COc1c(CNC2CCc3ccccc32)c(C)nn1C (stereo not given)	-10.5
CSCC[C@H](NC(=O)Cn1ccc2c(Cl)cccc21)C(=O)O	-11.9
OC1(Cn2ccc3ncccc32)CCN(Cc2cc(F)cc(F)c2)CC1	5.69
CCN1CC(C(=O)NCc2ccccc2-n2cccn2)CC1=O (stereo not given)	-10.2
COCCOc1ccc(NC(=O)N(CCCO)CC(C)(C)C)cn1	21.2

Structure (SMILES)	cytotoxicity at 70.5 h [%]
CCn1cc(CN2CCc3nc(-c4ccccn4)nc(O)c3C2)cn1	-10
Cc1ccc(-n2nnnc2C2(NCc3ccco3)CCCC2)cc1	-13.6
CCS(=O)(=O)NCCCNc1cc(N2CCCC2CO)ncn1 (stereo not given)	-4.09
CCCS(=O)(=O)N1C[C@@H]2COC[C@@H](Cc3nc(C)no3)[C@@H]2C1	-1.7
CCCc1cc(CN(C)C2CCSCC2)n[nH]1	0.588
COc1ncc(NCc2ccsc2)cc1C(N)=O	3.63
O=C(c1cc(F)ccc1F)C1CCN(C(=O)c2cccnc2O)CC1	-16.4
CCc1nnc2n1CCN(C(C(=O)NC1CC1)c1ccc(F)cc1)C2 (stereo not given)	-15.2
CN(Cc1cc2n(n1)CCN(C(=O)c1cccnc1)C2)Cc1nccs1	-12
CCOCC1CN(CC2CC2)Cc2cnn(C)c21 (stereo not given)	-8.87
CC(C)[C@@H](N)C(=O)NCc1cccnc1N1CCc2ccccc2C1	-4.97
COc1ccc(C)nc1NC(=O)Cc1c(C)nn(C)c1C	-0.279
CC1Cc2ccccc2N1C(=O)Cn1nc(-c2cccs2)cc(N)c1=O (stereo not given)	-3.41
Cc1cccc(C2(CNC(=O)C(C)S(C)(=O)=O)CCCC2)c1 (stereo not given)	-3.73
Fc1ccc(N2CCN(CCCc3cn[nH]c3)CC2)cc1	12
CCC(NC(=O)c1ccc2[nH]ccc2c1)C(=O)N1CCOCC1 (stereo not given)	6.49
Cc1noc([C@H]2C[C@@H]3CCN(CC4CC4)C[C@H]3O2)n1	-7.86
CN(C)c1ccc(NC(=O)NCc2cccs2)cn1	-6.16
COCC(=O)N1CCC(Oc2cccc(C)c2)CC1	-16
CNC(=O)CN(C(=O)c1ccccc1)[C@H]1C[C@H]2CCOC[C@H]2C1	-1.15
COCCN1CC(c2nc(CSC)no2)CCC1=O (stereo not given)	2.97
Cc1nnc([C@H]2C[C@@H]3CCN(Cc4cc(C)on4)C[C@H]3O2)[nH]1	-4.17
CCC(C)(NC(=O)CCN1CCOC1=O)C(=O)OC (stereo not given)	20.8

Structure (SMILES)	cytotoxicity at 70.5 h [%]
O=C(NCC1(O)CCc2ccccc21)Nc1ccc2c(c1)OCO2 (stereo not given)	-3.18
CNC(=O)CCc1cc(C2CCNCC2)nc(C)n1	-5.9
Cc1cc(C)n(C2CCCN(C(=O)CCCNc3ncccn3)C2)n1 (stereo not given)	27.5
CN1CCCC1CCNC(=O)c1ccccc1-n1cnc(CN)c1 (stereo not given)	0.899
CC(=O)N1CCc2c(nc(N(C)C)nc2N(C)CC2CCCO2)C1 (stereo not given)	-6.61
CC(C)NC(=O)CSc1nc2c(cnn2CCO)c(=O)[nH]1	26.7
O=C(NCCOc1ccc2c(c1)CCC2)N1CCS(=O)(=O)CC1	23.8
Cc1nc(C)c(C)c(N2CCC3(CCOC3)C2)n1 (stereo not given)	17
CCN1CCCC(O)(CNCc2ccncc2)C1 (stereo not given)	14.1
CCc1ncc(CN2C[C@H]3CC[C@@H]2CN(C(=O)C2CCC2)C3)cn1	-6.96
CC(C)CC(Cc1cccc(Br)c1)C(=O)O (stereo not given)	22.2
CCN(CC)CCCNCc1cc2cc(C)ccc2[nH]c1=O	7.87
Cc1ccc(NC(=O)CS(=O)(=O)NC2CCC(C)CC2)nc1 (stereo not given)	-2.47
CN1CCN(Cc2nnc(C3CCN(S(C)(=O)=O)CC3)n2C)CC1	-20.6
Cc1cnn(CC2CCCN2Cc2nnsc2Cl)c1 (stereo not given)	31.9
Cn1nc(COCC2CC2)c2c1CCN(C(=O)c1ccno1)C2	-10.9
Cc1cc(C(=O)NC2CCN(c3nnc(C)c(C)c3C#N)CC2)no1	-6.5
COCc1cc(CNC(=O)c2c(O)cccc2O)n[nH]1	-1.82
COc1cc(-c2cc(OC)c(OC)c(OC)c2)ncn1	-6.68
CC(NC(=O)CCOc1ccc(F)cc1)c1nnc2n1CCCCC2 (stereo not given)	5.98
CCn1cnnc1CNC(=O)N1CCOC(c2ccc(F)cc2)C1 (stereo not given)	-3.32
O=C(O)CC(CC(=O)NCCc1ccsc1)c1cccs1 (stereo not given)	-13.1
COCCN1CCN(CCS(=O)(=O)c2cccc(OC)c2)CC1	-2.71
